Measurements as given in the NIST ThermoML archive (doi:10.1021/acs.jced.7b00347).
± gives the expanded uncertainty stated by the source.

Assay: mn = molality of the nth substance listed, in mol/kg
Conditions: for surface tension liquid-gas: Ring tensiometer; for electrical conductivity: 100 kPa, Liquid, Alternating current cell with electrodes

CCCCCCCCCCCC[NH+](CCO)CC(C)O.[Cl-] (stereo not drawn) + O
surface tension liquid-gas (303.15 K, m1 = 3.859e-05): 42.83 ± 0.58 mN/m | surface tension liquid-gas (303.15 K, m1 = 7.717e-05): 38 ± 0.52 mN/m | surface tension liquid-gas (303.15 K, m1 = 0.0001544): 32.62 ± 0.46 mN/m | surface tension liquid-gas (303.15 K, m1 = 0.0002315): 29.91 ± 0.44 mN/m | surface tension liquid-gas (303.15 K, m1 = 0.0002797): 28.96 ± 0.43 mN/m | surface tension liquid-gas (303.15 K, m1 = 0.0007717): 28.21 ± 0.42 mN/m | surface tension liquid-gas (303.15 K, m1 = 0.001543): 27.64 ± 0.42 mN/m | surface tension liquid-gas (303.15 K, m1 = 0.002315): 27.64 ± 0.42 mN/m | surface tension liquid-gas (303.15 K, m1 = 0.003087): 27.64 ± 0.42 mN/m | electrical conductivity (303.15 K, m1 = 1.54e-05): 0.00051 ± 2.8e-05 S/m | electrical conductivity (303.15 K, m1 = 3.44e-05): 0.000593 ± 3.3e-05 S/m | electrical conductivity (303.15 K, m1 = 5.34e-05): 0.000676 ± 3.7e-05 S/m | electrical conductivity (303.15 K, m1 = 7.23e-05): 0.000759 ± 4.2e-05 S/m | electrical conductivity (303.15 K, m1 = 9.13e-05): 0.000841 ± 4.6e-05 S/m | electrical conductivity (303.15 K, m1 = 0.0001102): 0.000924 ± 7.1e-05 S/m | electrical conductivity (303.15 K, m1 = 0.0001292): 0.00101 ± 5.9e-05 S/m | electrical conductivity (303.15 K, m1 = 0.0001482): 0.00109 ± 7.6e-05 S/m | electrical conductivity (303.15 K, m1 = 0.0001671): 0.00117 ± 8.2e-05 S/m | electrical conductivity (303.15 K, m1 = 0.0001861): 0.00126 ± 0.00022 S/m | electrical conductivity (303.15 K, m1 = 0.0002051): 0.00134 ± 7.4e-05 S/m | electrical conductivity (303.15 K, m1 = 0.000224): 0.00142 ± 7.9e-05 S/m | electrical conductivity (303.15 K, m1 = 0.000243): 0.0015 ± 8.3e-05 S/m | electrical conductivity (303.15 K, m1 = 0.0002619): 0.00159 ± 0.00018 S/m | electrical conductivity (303.15 K, m1 = 0.0002809): 0.00167 ± 0.0001 S/m | electrical conductivity (303.15 K, m1 = 0.0003067): 0.00174 ± 0.0001 S/m | electrical conductivity (303.15 K, m1 = 0.0003326): 0.00181 ± 0.00011 S/m | electrical conductivity (303.15 K, m1 = 0.0003584): 0.00188 ± 0.0001 S/m | electrical conductivity (303.15 K, m1 = 0.0003842): 0.00195 ± 0.00011 S/m | electrical conductivity (303.15 K, m1 = 0.0004101): 0.00202 ± 0.00015 S/m | electrical conductivity (303.15 K, m1 = 0.0004359): 0.00209 ± 0.00012 S/m | electrical conductivity (303.15 K, m1 = 0.0004617): 0.00216 ± 0.00019 S/m | electrical conductivity (303.15 K, m1 = 0.0004876): 0.00223 ± 0.00013 S/m | electrical conductivity (303.15 K, m1 = 0.0005134): 0.0023 ± 0.0003 S/m | electrical conductivity (303.15 K, m1 = 0.0005392): 0.00237 ± 0.00013 S/m | electrical conductivity (303.15 K, m1 = 0.0005651): 0.00244 ± 0.00014 S/m | electrical conductivity (303.15 K, m1 = 0.0005909): 0.00251 ± 0.00016 S/m | electrical conductivity (303.15 K, m1 = 0.0006167): 0.00258 ± 0.00014 S/m | electrical conductivity (303.15 K, m1 = 0.0006426): 0.00265 ± 0.00015 S/m | electrical conductivity (303.15 K, m1 = 0.0006684): 0.00272 ± 0.00036 S/m | electrical conductivity (303.15 K, m1 = 0.0006942): 0.00279 ± 0.00015 S/m | electrical conductivity (303.15 K, m1 = 0.0007201): 0.00285 ± 0.00016 S/m | electrical conductivity (303.15 K, m1 = 0.0007459): 0.00293 ± 0.00024 S/m | electrical conductivity (303.15 K, m1 = 0.0007717): 0.003 ± 0.00016 S/m | surface tension liquid-gas (308.15 K, m1 = 8.952e-06): 50.44 ± 0.67 mN/m | surface tension liquid-gas (308.15 K, m1 = 1.543e-05): 46.51 ± 0.62 mN/m | surface tension liquid-gas (308.15 K, m1 = 3.087e-05): 41.89 ± 0.57 mN/m | surface tension liquid-gas (308.15 K, m1 = 3.859e-05): 40.38 ± 0.55 mN/m | surface tension liquid-gas (308.15 K, m1 = 7.717e-05): 35.57 ± 0.49 mN/m | surface tension liquid-gas (308.15 K, m1 = 0.0001544): 31.04 ± 0.45 mN/m | surface tension liquid-gas (308.15 K, m1 = 0.0002624): 27.74 ± 0.42 mN/m | surface tension liquid-gas (308.15 K, m1 = 0.0003087): 27.74 ± 0.42 mN/m | surface tension liquid-gas (308.15 K, m1 = 0.0007717): 27.55 ± 0.42 mN/m | surface tension liquid-gas (308.15 K, m1 = 0.001543): 27.08 ± 0.41 mN/m | surface tension liquid-gas (308.15 K, m1 = 0.002315): 26.79 ± 0.41 mN/m | surface tension liquid-gas (308.15 K, m1 = 0.003087): 26.79 ± 0.41 mN/m | electrical conductivity (308.15 K, m1 = 1.54e-05): 0.00061 ± 3.4e-05 S/m | electrical conductivity (308.15 K, m1 = 3.51e-05): 0.000702 ± 3.9e-05 S/m | electrical conductivity (308.15 K, m1 = 5.47e-05): 0.000794 ± 4.5e-05 S/m | electrical conductivity (308.15 K, m1 = 7.43e-05): 0.000886 ± 5.1e-05 S/m | electrical conductivity (308.15 K, m1 = 9.39e-05): 0.000978 ± 5.7e-05 S/m | electrical conductivity (308.15 K, m1 = 0.0001136): 0.00107 ± 6.3e-05 S/m | electrical conductivity (308.15 K, m1 = 0.0001332): 0.00116 ± 6.9e-05 S/m | electrical conductivity (308.15 K, m1 = 0.0001528): 0.00125 ± 7.5e-05 S/m | electrical conductivity (308.15 K, m1 = 0.0001724): 0.00135 ± 8.1e-05 S/m | electrical conductivity (308.15 K, m1 = 0.000192): 0.00144 ± 8.7e-05 S/m | electrical conductivity (308.15 K, m1 = 0.0002117): 0.00153 ± 9.4e-05 S/m | electrical conductivity (308.15 K, m1 = 0.0002313): 0.00162 ± 0.0001 S/m | electrical conductivity (308.15 K, m1 = 0.0002509): 0.00171 ± 0.00011 S/m | electrical conductivity (308.15 K, m1 = 0.0002705): 0.00181 ± 0.00011 S/m | electrical conductivity (308.15 K, m1 = 0.0002902): 0.0019 ± 0.00012 S/m | electrical conductivity (308.15 K, m1 = 0.0003169): 0.00198 ± 0.00012 S/m | electrical conductivity (308.15 K, m1 = 0.0003437): 0.00207 ± 0.00013 S/m | electrical conductivity (308.15 K, m1 = 0.0003704): 0.00215 ± 0.00014 S/m | electrical conductivity (308.15 K, m1 = 0.0003972): 0.00224 ± 0.00014 S/m | electrical conductivity (308.15 K, m1 = 0.0004239): 0.00232 ± 0.00015 S/m | electrical conductivity (308.15 K, m1 = 0.0004507): 0.00241 ± 0.00015 S/m | electrical conductivity (308.15 K, m1 = 0.0004774): 0.00249 ± 0.00016 S/m | electrical conductivity (308.15 K, m1 = 0.0005042): 0.00258 ± 0.00016 S/m | electrical conductivity (308.15 K, m1 = 0.0005309): 0.00266 ± 0.00017 S/m | electrical conductivity (308.15 K, m1 = 0.0005577): 0.00275 ± 0.00017 S/m | electrical conductivity (308.15 K, m1 = 0.0005845): 0.00283 ± 0.00017 S/m | electrical conductivity (308.15 K, m1 = 0.0006112): 0.00291 ± 0.00018 S/m | electrical conductivity (308.15 K, m1 = 0.000638): 0.003 ± 0.00018 S/m | electrical conductivity (308.15 K, m1 = 0.0006647): 0.00308 ± 0.00019 S/m | electrical conductivity (308.15 K, m1 = 0.0006915): 0.00317 ± 0.00019 S/m | electrical conductivity (308.15 K, m1 = 0.0007182): 0.00325 ± 0.00019 S/m | electrical conductivity (308.15 K, m1 = 0.000745): 0.00334 ± 0.0002 S/m | electrical conductivity (308.15 K, m1 = 0.0007717): 0.00342 ± 0.0002 S/m
